Experimental findings from US11033535B2, “Oxadiazoles and thiadiazoles as TGF-β inhibitors” (Southern Research Institute, priority 2017, dated 2021) are described below.

The assay has as its target (Homo sapiens, UniProt P07996). Briefly: Secondary Assay, inhibitory activity of thiadiazole and oxadiazole analogs as TGF-beta inhibitors. As to conditions: Table I. It is filed as biochemical. Here is the method:
A summary of the inhibitory activity of representative thiadiazole analogs (Tables i and ii) and oxadiazole analogs (Table ii) is shown below.
For initial screening, an ELISA-based screening assay was used in which purified human platelet TSP-1 was incubated with compounds and then incubated with recombinant latent TGF-β1 (purchased from R&D Systems). Activity is measured in a commercially available ELISA which detects only active TGF-β (R &D Systems). Activity in the presence of compounds is compared to activity in TSP-1+latent TGF-β samples without inhibitory compounds (Lu et al. (2016) Am J Pathol 186:678-690).
To specifically assess activity of compounds in liver cell specific assays, two different assays were used. In the first, human hepatic stellate cells were incubated overnight in low serum media to condition the media with secreted latent TGF-β. Purified TSP1 either pre-incubated with compounds or not will be added to cultures and then conditioned media harvested to assess TGF-β biological activity using the R&D Systems ELISA as above. Hepatic stellate cells will be purchased from commercial sources. Although hepatic stellate cells are the primary drivers of liver fibrosis, conditions which drive liver fibrosis can induce hepatocyte TSP-1 expression which can then have paracrine effects on controlling TGF-β activation in hepatic stellate cells. Furthermore, TGF-β can negatively impact hepatocyte regeneration following injury. Therefore, the ability of compounds to block TSP-1 activation of latent TGF-β will also be assessed in cultured primary human hepatocytes following the protocol described for the hepatic stellate cells. Similar approaches have successfully been used to screen compounds which inhibit human myeloma cell derived latent TGF-β activation by TSP-1 (Lu et al. (2016) Am J Pathol 186:678-690).

Chain of (Homo sapiens, UniProt P07996) (P07996 whole entry): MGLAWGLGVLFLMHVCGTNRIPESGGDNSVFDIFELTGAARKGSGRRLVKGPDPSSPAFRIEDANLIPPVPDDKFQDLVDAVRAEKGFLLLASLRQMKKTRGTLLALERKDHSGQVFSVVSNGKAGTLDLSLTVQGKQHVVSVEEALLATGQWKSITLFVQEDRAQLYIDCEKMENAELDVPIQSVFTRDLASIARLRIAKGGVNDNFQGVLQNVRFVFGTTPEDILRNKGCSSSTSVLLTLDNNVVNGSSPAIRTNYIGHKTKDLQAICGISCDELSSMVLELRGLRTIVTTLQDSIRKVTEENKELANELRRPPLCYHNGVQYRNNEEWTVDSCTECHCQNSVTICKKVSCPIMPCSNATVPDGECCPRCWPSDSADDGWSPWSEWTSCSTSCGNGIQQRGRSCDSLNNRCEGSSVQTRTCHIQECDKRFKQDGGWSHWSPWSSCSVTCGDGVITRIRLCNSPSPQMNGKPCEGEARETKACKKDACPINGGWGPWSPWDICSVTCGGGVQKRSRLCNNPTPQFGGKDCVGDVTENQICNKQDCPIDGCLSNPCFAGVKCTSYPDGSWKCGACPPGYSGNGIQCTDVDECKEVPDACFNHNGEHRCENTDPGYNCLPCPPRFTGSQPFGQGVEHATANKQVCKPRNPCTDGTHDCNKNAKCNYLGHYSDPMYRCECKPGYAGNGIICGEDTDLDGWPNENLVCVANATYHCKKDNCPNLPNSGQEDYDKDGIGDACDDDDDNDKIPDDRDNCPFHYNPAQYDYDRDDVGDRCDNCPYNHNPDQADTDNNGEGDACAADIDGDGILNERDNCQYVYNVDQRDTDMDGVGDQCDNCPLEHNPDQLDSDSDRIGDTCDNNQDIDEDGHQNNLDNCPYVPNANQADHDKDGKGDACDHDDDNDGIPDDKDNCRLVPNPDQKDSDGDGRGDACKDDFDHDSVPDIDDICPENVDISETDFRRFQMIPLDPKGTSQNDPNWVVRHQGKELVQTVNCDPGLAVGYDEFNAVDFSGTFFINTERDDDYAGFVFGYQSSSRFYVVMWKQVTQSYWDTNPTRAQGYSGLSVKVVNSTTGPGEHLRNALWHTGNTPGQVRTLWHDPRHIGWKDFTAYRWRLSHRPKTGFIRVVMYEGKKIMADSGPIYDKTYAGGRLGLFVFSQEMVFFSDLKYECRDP

As a reminder, the IC50 is the midpoint of a concentration-inhibition curve. `CNCc1ccc(C[C@H](NC(C)=O)c2nnc(-c3cccc(OC(F)(F)F)c3)s2)cc1` [Compound 42140, N-(2-(4-((methylamino)methyl)phenyl)-1-(5-(3-(trifluoromethoxy)phenyl)-1,3,4-thiadiazol-2-yl)ethyl)acetamide] yielded a half-maximal inhibitory concentration (IC50) of 0.051 µM.

With `CC(=O)N[C@@H](Cc1ccc(CN(C)C)cc1)c1nnc(-c2cccc(OC(F)(F)F)c2)s1` [Compound 42320, N-(2-(4-((dimethylamino)methyl)phenyl)-1-(5-(3-(trifluoromethoxy)phenyl)-1,3,4-thiadiazol-2-yl)ethyl)acetamide], half-maximal inhibition (IC50) was put at 0.002 µM.
